This is an account of results in ChEMBL document CHEMBL6103587, “Anti-tumor effects of artemisinin-based oligomers: From monomer to trimer as a novel drug-enhancing strategy” (Eur J Med Chem, 2025).

Assay [1] has as its system MCF7. The assay is described as follows: Antitumor activity against human MCF7 cells assessed as reduction in cell viability incubated for 72 hrs by CCK8 assay. The note with it: MCF7, 72 h. It counts as functional, cell-based. Background: Formazan colour is commonly taken as a measure of viable cells.
For assay [2], the system named is MCF7. The assay is described as follows: Antitumor activity against human MCF7 cells assessed as decrease in number of viable cells at 0.05 to 0.2 uM incubated for 24 hrs by Hoechst 33342 staining based confocal microscopic analysis. It counts as functional, cell-based. The settings on record: dose 0.05-0.2 µM.
Assay [3] relates to MCF7. The assay is described as follows: Antitumor activity against human MCF7 cells assessed as decrease in nuclear volume at 0.05 to 0.2 uM incubated for 24 hrs by Hoechst 33342 staining based confocal microscopic analysis. The format is functional, cell-based. The note with it: dose 0.05-0.2 µM.
Assay [4] concerns MCF7. In words: Antitumor activity against human MCF7 cells assessed as […] at 0.05 to 0.2 uM incubated for 24 hrs by Hoechst 33342 staining based confocal microscopic analysis. It counts as functional, cell-based. The settings on record: dose 0.05-0.2 µM.
For assay [5], the system named is MCF7. The assay is described as follows: Inhibition of colony formation in human MCF7 cells assessed as reduction in clone formation rate at 0.05 to 0.2 uM measured after 14 days by giemsa staining based dissection microscopic analysis. The note with it: dose 0.05-0.2 µM, time 14.0 day. It counts as functional, cell-based.
Assay [6] relates to MCF7. In words: Inhibition of colony formation in human MCF7 cells assessed as reduction in number of colonies measured after 14 days by giemsa staining based dissection microscopic analysis. The format is functional, cell-based. The note with it: dose 0.05-0.2 µM, time 14.0 day.
The test system of assay [7] is MCF7. In words: Induction of apoptosis in human MCF7 cells assessed as increase in death ratio at 0.05 to 0.2 uM by Annexin V-FITC/PI staining based flow cytometric analysis. The format is functional, cell-based. The note with it: dose 0.05-0.2 µM. (Flow cytometry measures light scatter and fluorescence of single cells or particles in a stream.)
The subject of assay [8] is Mitochondrial membrane. The assay is described as follows: Induction of mitochondrial membrane potential loss in human MCF7 cells assessed as reduction in JC-1 aggregate formation at 0.05 to 0.2 uM incubated for 48 hrs by JC-1 staining based confocal microscopic analysis. The format is cell membranes. The note with it: dose 0.05-0.2 µM.
For assay [9], the system named is Mitochondrial membrane. The assay is described as follows: Induction of mitochondrial membrane potential loss in human MCF7 cells assessed as increase in JC-1 monomer level at 0.05 to 0.2 uM incubated for 48 hrs by JC-1 staining based confocal microscopic analysis. The format is cell membranes. The settings on record: dose 0.05-0.2 µM.
In assay [10] the test system is MCF7. In words: Induction of apoptosis in human MCF7 cells assessed as increase in Bax level at 0.05 to 0.2 uM incubated for 48 hrs by Western blot analysis. It counts as functional, cell-based. The settings on record: dose 0.05-0.2 µM. On the technique in general: Immunoblotting shows a protein as a band on a membrane.
Assay [11] concerns MCF7. In words: Induction of apoptosis in human MCF7 cells assessed as increase in caspase 3 level at 0.05 to 0.2 uM incubated for 48 hrs by Western blot analysis. The format is functional, cell-based. The note with it: dose 0.05-0.2 µM.
Assay [12] concerns MCF7. The assay is described as follows: Induction of ferroptosis in human MCF7 cells assessed as reduction in GPX4 expression at 0.05 to 0.2 uM incubated for 48 hrs by Western blot analysis. The format is functional, cell-based. The note with it: dose 0.05-0.2 µM.
In assay [13] the test system is MCF7. The assay is described as follows: Induction of apoptosis in human MCF7 cells assessed as viable cells at 0.05 uM by Annexin V-FITC/PI staining based flow cytometric analysis (reference value: 92.01 %). The note with it: read-out: Activity. The format is functional.
Assay [14] relates to MCF7. In words: Induction of apoptosis in human MCF7 cells assessed as early apoptotic cells at 0.05 uM by Annexin V-FITC/PI staining based flow cytometric analysis (reference value: 5.75 %). The format is functional.
Assay [15] deals with MCF7. The assay is described as follows: Induction of apoptosis in human MCF7 cells assessed as late apoptotic cells at 0.05 uM by Annexin V-FITC/PI staining based flow cytometric analysis (reference value: 1.97 %). It counts as functional.
Assay [16] concerns MCF7. In words: Induction of apoptosis in human MCF7 cells assessed as necrotic cells at 0.05 uM by Annexin V-FITC/PI staining based flow cytometric analysis (reference value: 0.27 %). It counts as functional.
Assay [17] concerns MCF7. The assay is described as follows: Induction of apoptosis in human MCF7 cells assessed as viable cells at 0.1 uM by Annexin V-FITC/PI staining based flow cytometric analysis (reference value: 92.01 %). The settings on record: read-out: Activity. It counts as functional.
Assay [18] deals with MCF7. In words: Induction of apoptosis in human MCF7 cells assessed as early apoptotic cells at 0.1 uM by Annexin V-FITC/PI staining based flow cytometric analysis (reference value: 5.75 %). It counts as functional.
Assay [19] relates to MCF7. The assay is described as follows: Induction of apoptosis in human MCF7 cells assessed as late apoptotic cells at 0.1 uM by Annexin V-FITC/PI staining based flow cytometric analysis (reference value: 1.97 %). The format is functional.
In assay [20] the test system is MCF7. In words: Induction of apoptosis in human MCF7 cells assessed as necrotic cells at 0.1 uM by Annexin V-FITC/PI staining based flow cytometric analysis (reference value: 0.27 %). It counts as functional.
For assay [21], the system named is MCF7. In words: Induction of apoptosis in human MCF7 cells assessed as viable cells at 0.2 uM by Annexin V-FITC/PI staining based flow cytometric analysis (reference value: 92.01 %). It counts as functional. The note with it: read-out: Activity.
Assay [22] has as its system MCF7. The assay is described as follows: Induction of apoptosis in human MCF7 cells assessed as early apoptotic cells at 0.2 uM by Annexin V-FITC/PI staining based flow cytometric analysis (reference value: 5.75 %). The format is functional.
Assay [23] concerns MCF7. In words: Induction of apoptosis in human MCF7 cells assessed as late apoptotic cells at 0.2 uM by Annexin V-FITC/PI staining based flow cytometric analysis (reference value: 1.97 %). The format is functional.
For assay [24], the system named is MCF7. In words: Induction of apoptosis in human MCF7 cells assessed as necrotic cells at 0.2 uM by Annexin V-FITC/PI staining based flow cytometric analysis (reference value: 0.27 %). It counts as functional.

Active and inactive are the calls of the source. The rule behind the calls is not given here.

With `Nc1ccn([C@@H]2O[C@H](CO)[C@@H](O)C2(F)F)c(=O)n1` [GEMCITABINE], the IC50 in the assay with MCF7 [1] was 4.33 µM.
Consider `C[C@H]1[C@@H](OCCNCCO[C@H]2O[C@@H]3O[C@@]4(C)CC[C@H]5[C@H](C)CC[C@@H]([C@H]2C)[C@@]35OO4)O[C@@H]2O[C@@]3(C)CC[C@H]4[C@H](C)CC[C@@H]1[C@@]24OO3`, for which the IC50 with MCF7 [1] is 3.14 µM.
Turning to `C[C@H]1[C@@H](OCCN)O[C@@H]2O[C@@]3(C)CC[C@H]4[C@H](C)CC[C@@H]1[C@@]24OO3`, the IC50 in the assay with MCF7 [1] was greater than 10 µM.
On to `C[C@H]1[C@@H](O)O[C@@H]2O[C@@]3(C)CC[C@H]4[C@H](C)CC[C@@H]1[C@@]24OO3` [ARTENIMOL], for which the IC50 in the assay on MCF7 [1] was greater than 10 µM.
Turning to `C[C@H]1[C@@H](OCCN(CCO[C@H]2O[C@@H]3O[C@@]4(C)CC[C@H]5[C@H](C)CC[C@@H]([C@H]2C)[C@@]35OO4)CCO[C@H]2O[C@@H]3O[C@@]4(C)CC[C@H]5[C@H](C)CC[C@@H]([C@H]2C)[C@@]35OO4)O[C@@H]2O[C@@]3(C)CC[C@H]4[C@H](C)CC[C@@H]1[C@@]24OO3`, in the assay with MCF7 [1], the IC50 came out at 0.09 µM. Besides, the result in the assay on MCF7 [2], in the assay on MCF7 [3], in the assay with MCF7 [4], in the assay with MCF7 [7], in the assay on MCF7 [10] and in the assay on MCF7 [11] was Active. Also, the result in the assay on MCF7 [12] was Active. Also, the inhibition entry in the assay on MCF7 [5] is “Active”. For the same molecule, the inhibition result in the assay on MCF7 [6] is “Dose-dependent-effect”. In addition, the Activity entry in the assay on Mitochondrial membrane [8] is “Active; Partial Loss Of Membrane Potential Observed”; in the assay on Mitochondrial membrane [9], “Active; Partial Loss Of Membrane Potential Observed”; in the assay with MCF7 [14], 13.23%; with MCF7 [15] it was 9.54%; with MCF7 [16], 0.74%; in the assay with MCF7 [18] it was 14.22%. Further, the Activity in the assay on MCF7 [19] is reported as 10.27%; with MCF7 [20], 1.14%; with MCF7 [22] it was 16.86%; with MCF7 [23] it was 20.21%; in the assay on MCF7 [24], 0.48%. In addition, the viability at 0.05 µM in the assay on MCF7 [13] was 76.5%. Further, the viability at 0.1 µM with MCF7 [17] was found to be 74.4%. In addition, the viability at 0.2 µM with MCF7 [21] is 62.5%.

For orientation: IC50 means the midpoint of a concentration-inhibition curve.
